system: genotype A, "Long" strain RSV; assay: RSV-A assay: CPE protection in HEp-2 cells, ATPlite readout; type: cell-based, human respiratory syncytial virus; settings: HEp-2 cells, RSV-A Long strain, ATPlite readout; read-out: Human RSV-A (“Long” strain) EC50
Method in brief: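 EC50 derives from ATPlite luminescence after 5-day culture of RSV Long-infected (MOI 0.1) HEp-2 cells, seeded 8,000/well, exposed to duplicate 2-fold compound series. CC50 comes from an identical plate receiving medium instead of virus.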

Row | Compound | EC50
1 | O=C1Nc2ccccc2C(c2ccccc2)=NC1Nc1nnc(-c2ccc(F)nc2N2CCOCC2)o1 (stereo not drawn) [Example 150] | < 400 nM
2 | O=C1Nc2ccccc2C(c2ccccc2)=N[C@@H]1Nc1nnc(-c2cn(CC3CC3)nc2N2CCOCC2)o1 [Example 447] | 400 to 800 nM
3 | O=C1Nc2ccccc2C(c2ccccc2)=N[C@H]1Nc1nnc(-c2nc(C(F)(F)F)sc2N2CCO[C@@H]3C[C@@H]32)o1 [Example 486] | > 800 nM
4 | O=C1Nc2ccccc2C(c2ccccc2)=N[C@@H]1Nc1nnc(-c2cn(CC3CC3)nc2N2CCOCC2)o1 [Example 446] | < 400 nM

same assay, conditions: human respiratory syncytial virus, HEp-2, read-out: Human RSV-A (“Long” strain) EC50

Row | Compound | EC50
5 | O=C1Nc2ccccc2C(c2ccccc2)=N[C@@H]1Nc1nnc(-c2ncc(C3=CCCCC3)cc2N2CCOCC2)o1 [Example 312] | 400 to 800 nM
6 | O=C1Nc2ccccc2C(c2ccccc2)=NC1Nc1nnc(-c2ccccc2N2CCS(=O)(=O)CC2)o1 (stereo not drawn) [Example 240] | > 800 nM
7 | CC(C)(O)c1nnc(NC2N=C(c3ccccc3)c3ccccc3NC2=O)o1 (stereo not drawn) [Example 213] | > 800 nM
8 | O=C1Nc2ccccc2C(c2ccccc2)=NC1Nc1nnc(C2CC3(CCNCC3)C2)o1 (stereo not drawn) [Example 222] | > 800 nM
9 | N#Cc1c[nH]c2cc(-c3nnc(N[C@H]4N=C(c5ccccc5)c5ccccc5NC4=O)o3)ccc12 [Example 291] | > 800 nM
10 | O=C1Nc2ccccc2C(c2ccccc2)=NC1Nc1nnc(C2CCC2)o1 (stereo not drawn) [Example 196] | > 800 nM
11 | N#Cc1ccc2nccc(-c3nnc(N[C@H]4N=C(c5ccccc5)c5ccccc5NC4=O)o3)c2c1 [Example 435] | > 800 nM
12 | CN1CCN(c2cc(C(F)(F)F)cnc2-c2nnc(N[C@H]3N=C(c4ccccc4)c4ccccc4NC3=O)o2)CC1=O [Example 296] | > 800 nM
13 | N#Cc1cnc(-c2nnc(N[C@H]3N=C(c4ccccc4)c4ccccc4NC3=O)o2)c(N2CCOCC2)c1 [Example 325] | < 400 nM
14 | C[C@@H]1CN(c2cc(F)ccc2-c2nnc(N[C@H]3N=C(c4ccccc4)c4ccccc4NC3=O)o2)C[C@H](C)O1 [Example 284] | > 800 nM
15 | C#Cc1cnc(-c2nnc(N[C@H]3N=C(c4ccccc4)c4ccccc4NC3=O)o2)c(N2CCOCC2)c1 [Example 311] | < 400 nM
16 | CC(C)(c1nc(-c2nnc(N[C@H]3N=C(c4ccccc4)c4ccccc4NC3=O)o2)c(N2CCOCC2)s1)N1CCOCC1 [Example 459] | < 400 nM
17 | O=C1Nc2ccccc2C(c2ccccc2)=N[C@@H]1Nc1nnc(-c2oc3cc(F)ccc3c2N2CCOCC2)o1 [Example 476] | 400 to 800 nM
18 | O=C1Nc2ccccc2C(c2ccccc2)=N[C@@H]1Nc1nnc(-c2cn(-c3ccc(C(F)(F)F)cn3)nc2N2CCOCC2)o1 [Example 440] | 400 to 800 nM
19 | N#Cc1ccc(N2CCOCC2)c(-c2nnc(N[C@H]3N=C(c4ccccc4)c4ccccc4NC3=O)o2)n1 [Example 324] | < 400 nM
20 | O=C1Nc2ccccc2C(c2ccccc2)=N[C@@H]1Nc1nnc(-c2ncc(C(F)(F)F)cc2NC[C@@H]2CCCO2)o1 [Example 419] | 400 to 800 nM
21 | C[C@@H]1COCCN1c1cc(C#N)ccc1-c1nnc(N[C@H]2N=C(c3ccccc3)c3ccccc3NC2=O)o1 [Example 285] | < 400 nM
22 | CC1(c2nnc(NC3N=C(c4ccccc4)c4ccccc4NC3=O)o2)CCNC1 (stereo not drawn) [Example 223] | > 800 nM
23 | O=C1Nc2ccccc2C(c2ccccc2)=NC1Nc1nnc(CC(F)(F)F)o1 (stereo not drawn) [Example 203] | > 800 nM
24 | O=C1Nc2ccccc2C(c2ccccc2)=NC1Nc1nnc(-c2ccc(NC3CCCCC3)cc2)o1 (stereo not drawn) [Example 116] | > 800 nM
25 | O=C1Nc2ccccc2C(c2ccccc2)=N[C@@H]1Nc1nnc(-c2ccc(F)nc2N2CCOCC2)o1 [Example 151, (S)-3-((5-(6-fluoro-2-morpholinopyridin-3-yl)-1,3,4-oxadiazol-2-yl)amino)-5-phenyl-1,3-dihydro-2H-benzo[e][1,4]diazepin-2-one] | < 400 nM
26 | Cc1ccc(-c2nnc(N[C@H]3N=C(c4ccccc4)c4ccccc4NC3=O)o2)c(N2CC3CCC(C2)O3)n1 [Example 279] | < 400 nM
27 | O=C1Nc2c(F)cccc2C(c2ccccc2)=N[C@H]1Nc1nnc(-c2ccccc2N2CCOCC2)o1 [Example 355b] | > 800 nM
28 | CC1(c2nc(-c3nnc(N[C@H]4N=C(c5ccccc5)c5ccccc5NC4=O)o3)c(N3CCOCC3)s2)CCC1 [Example 478] | < 400 nM

Row | Compound | EC50
29 | CN1CCN(c2ccc(-c3nnc(NC4N=C(c5ccccc5)c5ccccc5NC4=O)o3)cc2)CC1 (stereo not drawn) [Example 210] | > 800 nM
30 | Cn1cc(-c2nnc(N[C@H]3N=C(c4ccccc4)c4ccccc4NC3=O)o2)c(N2CCOCC2)n1 [Example 181] | < 400 nM
31 | O=C1Nc2ccccc2C(c2ccccc2)=NC1Nc1nnc(-c2ccncc2)[nH]1 (stereo not drawn) [Example 366] | > 800 nM
32 | O=C1Nc2ccccc2C(c2ccccc2)=NC1Nc1nnc(-c2nccnc2N2CCOCC2)o1 (stereo not drawn) [Example 143] | < 400 nM
33 | COCCn1nccc1-c1nnc(N[C@H]2N=C(c3ccccc3)c3ccccc3NC2=O)o1 [Example 310] | > 800 nM
34 | N#Cc1cnc(-c2nnc(N[C@H]3N=C(c4ccccc4)c4ccccc4NC3=O)o2)c(N2C3CCC2COC3)c1 [Example 333] | 400 to 800 nM
35 | N#Cc1ccc(-c2nnc(NC3N=C(c4ccccc4)c4ccccc4NC3=O)o2)s1 (stereo not drawn) [Example 183] | < 400 nM
36 | O=C1Nc2ccccc2C(c2ccccc2)=N[C@@H]1Nc1nnc(-c2ncc(C3CCCCC3)cc2N2CCOCC2)o1 [Example 313] | < 400 nM
37 | Cc1cc(-c2nnc(N[C@H]3N=C(c4ccccc4)c4ccccc4NC3=O)o2)c(N2CCOCC2)s1 [Example 330] | < 400 nM
38 | O=C1Nc2ccccc2C(c2ccccc2)=N[C@@H]1Nc1nnc(-c2ncc(C(F)(F)F)cc2NC[C@H]2CCCO2)o1 [Example 420] | < 400 nM
39 | O=C1Nc2ccccc2C(c2ccccc2)=N[C@@H]1Nc1nnc(-c2ncc(C(F)(F)F)cc2N2CCC(O)CC2)o1 [Example 328] | > 800 nM
40 | O=C1Nc2ccccc2C(c2ccccc2)=NC1Nc1nnc(-c2cccnc2N2C[C@H]3C[C@@H]2CO3)o1 (stereo partly drawn) [Example 264] | > 800 nM
41 | O=C1Nc2ccccc2C(c2ccccc2)=N[C@@H]1Nc1nnc(-c2ccc(N3C4CCC3COC4)cc2Cl)o1 [Example 244] | > 800 nM
42 | O=C1Nc2ccccc2C(c2ccccc2)=N[C@@H]1Nc1nnc(-c2nnsc2N2CCOCC2)o1 [Example 292] | < 400 nM
43 | O=C1Nc2ccccc2C(c2ccccc2)=NC1Nc1nnc(C2(F)CC2)o1 (stereo not drawn) [Example 204] | > 800 nM
44 | O=C1Nc2ccccc2C(c2ccccc2)=NC1Nc1nnc(-c2ccc(-n3cncn3)cc2)o1 (stereo not drawn) [Example 273] | 400 to 800 nM
45 | O=C1Nc2ccccc2C(c2ccccc2)=N[C@@H]1Nc1nnc(-c2ccc(N3CCOCC3)cc2F)o1 [Example 126a] | < 400 nM
46 | COc1ccc(-c2nnc(NC3N=C(c4ccccc4)c4ccccc4NC3=O)o2)nc1Cl (stereo not drawn) [Example 109] | > 800 nM
47 | O=C1Nc2ccccc2C(c2ccccc2)=NC1Nc1nnc(-c2cccnc2N2C3CCC2COC3)o1 (stereo not drawn) [Example 265] | > 800 nM
48 | COC1CN(c2ncccc2-c2nnc(NC3N=C(c4ccccc4)c4ccccc4NC3=O)o2)C1 (stereo not drawn) [Example 258] | > 800 nM
49 | COCc1nnc(NC2N=C(c3ccccc3)c3ccccc3NC2=O)o1 (stereo not drawn) [Example 191] | > 800 nM
50 | COc1ccc(-c2nnc(N[C@H]3N=C(c4ccccc4)c4ccccc4NC3=O)o2)c(N2CCOCC2)n1 [Example 295] | < 400 nM
51 | N#Cc1cnc(-c2nnc(N[C@H]3N=C(c4ccccc4)c4cccc(F)c4NC3=O)o2)c(N2CCOCC2)c1 [Example 361] | < 400 nM

— patent publication US12268694B2, “Combination pharmaceutical agents as RSV inhibitors” (Enanta Pharmaceuticals, Inc., priority 2017, dated 2025)
